# Assay results reported in publication PMC3134468, “Functions of Some Capsular Polysaccharide Biosynthetic Genes in Klebsiella pneumoniae NTUH K-2044” (PLoS ONE, 2011).
# Target: T1, WcaG (KP3709) (Klebsiella pneumoniae, UniProt A0ACD7U4D6)
# T1 construct: His-tagged (pET28a), expressed in E. coli BL21 star (DE3)
# Test: HPLC product analysis
# Format: biochemical
# Conditions: coupled with Gmd from GDP-mannose, pH 8.0
# Excerpt: HPLC product analysis on WcaG (KP3709) | GDP-mannose+NADPH+KP3711+KP3709
smiles,measurement,value
NC(=O)C1=CN([C@@H]2O[C@H](COP(=O)(O)OP(=O)(O)OC[C@H]3O[C@@H](n4cnc5c(N)ncnc54)[C@H](OP(=O)(O)O)[C@@H]3O)[C@@H](O)[C@H]2O)C=CC1 [NADPH],HPLC product analysis,GDP-mannose+NADPH+KP3711+KP3709
